Our source for the Activity and EC50 values is ChEMBL document CHEMBL5365417, “The development of diphenyleneiodonium analogs as GPR3 agonists” (Bioorg Med Chem Lett, 2023).

Bounds are passed on as bounds.

The first test deals with T1, G-protein coupled receptor 3 (Homo sapiens, UniProt P46089). In words: Agonist activity at human GPR3 expressed in HEK293 cells assessed as increase in cAMP accumulation at 1 uM incubated for 30 mins by AlphaScreen assay relative to control. The class given is functional, cell-based. In general terms: Changes in cAMP serve as a functional read-out for many G protein-coupled receptors.
T1 sequence (P46089 whole entry): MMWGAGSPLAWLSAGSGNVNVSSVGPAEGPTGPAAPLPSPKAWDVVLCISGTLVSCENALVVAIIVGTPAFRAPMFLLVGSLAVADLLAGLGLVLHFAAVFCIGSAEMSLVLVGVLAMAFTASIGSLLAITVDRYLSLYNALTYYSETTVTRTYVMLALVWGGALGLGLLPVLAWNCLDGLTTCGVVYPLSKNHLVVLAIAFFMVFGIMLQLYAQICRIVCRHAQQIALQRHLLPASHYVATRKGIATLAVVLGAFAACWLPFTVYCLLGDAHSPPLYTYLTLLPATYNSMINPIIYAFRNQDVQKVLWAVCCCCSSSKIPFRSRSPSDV
As to `CCCCCCCCCCCCC/C=C/[C@@H](O)[C@@H](N)COP(=O)(O)O`, the Activity came to 20%.

In another test the target is T1, G-protein coupled receptor 3. In words: Agonist activity at human GPR3 expressed in HEK293 cells assessed as increase in cAMP accumulation incubated for 30 mins by HTRF assay. It is filed as functional, cell-based.
Broadly, the EC50 is the concentration at which the effect is half-maximal. `c1ccc2c(c1)cnc1ccccc12` [PHENANTHRIDINE]: the EC50 came to 67 µM.

On to `Cc1nc2ccccc2c2ccccc12`, for which the EC50 came out at 86 µM.

Consider `O=[N+]([O-])c1ccc2c(c1)[I+]c1ccccc1-2`, for which the EC50 came out at 1.34 µM.

`CC1c2ccccc2-c2ccccc2N1C` (stereo not given): the EC50 was found to be 60 µM.

For the compound `CN(C)C1(C)c2ccccc2-c2ccccc21`, the concentration for a half-maximal effect (EC50) was greater than 100 µM.

Regarding `c1ccc2c(c1)sc1ccccc12` [DIBENZOTHIOPHENE], the EC50 came out at 81 µM.

Consider `O=S1(=O)c2ccccc2-c2ccccc21`, for which the EC50 is 5.1 µM.

Consider `O=CNC1c2ccccc2-c2ccccc21`, for which the EC50 was determined as 158 µM.

On to `C[n+]1cc2ccccc2c2ccccc21`, for which the EC50 was 382 µM.

On to `CC(C)(C)[S+]([O-])N=C1c2ccccc2-c2ccccc21` (stereo not given), for which the concentration giving a half-maximal response (EC50) was determined as 66 µM.

For the compound `c1ccc2c(c1)[nH]c1ccccc12` [CARBAZOLE], the EC50 turned out to be 7.6 µM.

For the compound `Cn1c2ccccc2c2ccccc21`, the half-maximal effective concentration (EC50) amounted to 40 µM.

`NC1c2ccccc2-c2ccccc21`: the EC50 was greater than 100 µM.

Turning to `CC1(N)c2ccccc2-c2ccccc21`, the EC50 was greater than 100 µM.

`C[N+]1(C)c2ccccc2-c2ccccc21`: the 50% effective concentration (EC50) amounted to 114 µM.

`FC1(F)Oc2cc3c(cc2O1)-c1ccccc1[I+]3`: the EC50 is 19.3 µM.

On to `Fc1ccc2c(c1)oc1ccccc12`, for which the EC50 came out at 105 µM.

`O=c1[nH]c2ccccc2c2ccccc12`: the EC50 was 45 µM.

With `CN(C)C1c2ccccc2-c2ccccc21`, the EC50 was 21 µM.
